Laboratory results: ChEMBL document CHEMBL1158833, “Roquefortine E, a diketopiperazine from an Australian isolate of Gymnoascus reessii” (2005)
Values after ≈ are worked out from the molar mass of the structure shown.

Assays:
Bacillus subtilis = experiment: Antimicrobial activity against Bacillus subtilis; format: functional
[1] = Cytotoxicity against mouse NS1 cells; format: functional

| SMILES | MIC (Bacillus subtilis) [µg/mL] | LD99 [1] [µg/mL] |
| --- | --- | --- |
| C=CC(C)(C)[C@@]12C[C@H]3C(=O)N/C(=C/c4c[nH]cn4)C(=O)N3[C@@H]1Nc1ccccc12 [ROQUEFORTINE C] | 6.3 (≈ 16.2 µM) | 50 |
| C=CC(C)(C)c1[nH]cnc1/C=C1/NC(=O)[C@@H]2C[C@@]3(C(C)(C)C=C)c4ccccc4N[C@H]3N2C1=O [ROQUEFORTINE E] | – | 24 |
